# Earlier results, collected in patent US20230218514A1, “FLOATING SUSTAINED RELEASE TABLET FORMULATION OF DROXIDOPA AND METHOD THEREOF” (priority 2022, published 2023).
# What was measured:
# monkeys = details: monkey, in vivo
# rats = details: rat, in vivo
# [1] = not given; remark: listed apart in the source
# [2] = not given; remark: listed apart in the source
# dogs = details: dog, in vivo
# mice = details: mouse, in vivo
smiles,measurement,setting,value
"N[C@H](C(=O)O)[C@H](O)c1ccc(O)c(O)c1 [Droxidopa, (2S,3R)-2-amino-3-(3,4-dihydroxyphenyl)-3-hydroxypropanoic acid]",Solubility,,≥ 3000 µg/mL
same,Stability in alkaline medium,alkaline medium,highly unstable
same,Solubility in dilute HCl,dilute HCl,Soluble
same,Solubility in organic solvents,"methanol, glacial acetic acid, ethanol, acetone, chloroform",Practically insoluble
same,Solubility in water,water,Slightly soluble
same,Acute oral LD50,monkeys,more than 5 g/kg
same,Acute oral LD50,rats,more than 5 g/kg
same,Cmax,[1]; in vivo,3160 ng/mL
same,Elimination half life,[1]; in vivo,2.5 h
same,Half-life,[1]; in vivo,2 to 3 h
same,Route of elimination,[1]; in vivo,mainly eliminated through urine
same,Tmax,[1]; in vivo,1 to 4 h
same,Volume of distribution,[1]; in vivo,200 L
same,Oral bioavailability,[1]; oral,90%
same,Protein binding,[2],75%
same,Acute oral LD50,dogs,more than 5 g/kg
same,Hepatotoxicity,"patients; human, in vivo",not found
same,"Side effects, share of patients","patients; nausea, headache, dizziness, increased B.P, hallucination and anorexia",0.78%
same,Acute oral LD50,mice,more than 5 g/kg
